Results from paper PMC11509018, “Evaluation of the Role of Tanshinone I in an In Vitro System of Charcot-Marie-Tooth Disease Type 2N” (International Journal of Molecular Sciences, 2024).
Changes are numbered by the printed parent chain. “Also recorded” adds a separate entry of the source.

Experiments:
[1] = target: T1, AlaRS^R329H (Homo sapiens, UniProt P49588, R329H); assay: Proteolytic digestion assay (trypsin, SDS-PAGE); details: 3 h
T1 construct: made in house; host or cells: E. coli BL21 (DE3), pET-21a
T1 sequence (P49588 1-968 R329H): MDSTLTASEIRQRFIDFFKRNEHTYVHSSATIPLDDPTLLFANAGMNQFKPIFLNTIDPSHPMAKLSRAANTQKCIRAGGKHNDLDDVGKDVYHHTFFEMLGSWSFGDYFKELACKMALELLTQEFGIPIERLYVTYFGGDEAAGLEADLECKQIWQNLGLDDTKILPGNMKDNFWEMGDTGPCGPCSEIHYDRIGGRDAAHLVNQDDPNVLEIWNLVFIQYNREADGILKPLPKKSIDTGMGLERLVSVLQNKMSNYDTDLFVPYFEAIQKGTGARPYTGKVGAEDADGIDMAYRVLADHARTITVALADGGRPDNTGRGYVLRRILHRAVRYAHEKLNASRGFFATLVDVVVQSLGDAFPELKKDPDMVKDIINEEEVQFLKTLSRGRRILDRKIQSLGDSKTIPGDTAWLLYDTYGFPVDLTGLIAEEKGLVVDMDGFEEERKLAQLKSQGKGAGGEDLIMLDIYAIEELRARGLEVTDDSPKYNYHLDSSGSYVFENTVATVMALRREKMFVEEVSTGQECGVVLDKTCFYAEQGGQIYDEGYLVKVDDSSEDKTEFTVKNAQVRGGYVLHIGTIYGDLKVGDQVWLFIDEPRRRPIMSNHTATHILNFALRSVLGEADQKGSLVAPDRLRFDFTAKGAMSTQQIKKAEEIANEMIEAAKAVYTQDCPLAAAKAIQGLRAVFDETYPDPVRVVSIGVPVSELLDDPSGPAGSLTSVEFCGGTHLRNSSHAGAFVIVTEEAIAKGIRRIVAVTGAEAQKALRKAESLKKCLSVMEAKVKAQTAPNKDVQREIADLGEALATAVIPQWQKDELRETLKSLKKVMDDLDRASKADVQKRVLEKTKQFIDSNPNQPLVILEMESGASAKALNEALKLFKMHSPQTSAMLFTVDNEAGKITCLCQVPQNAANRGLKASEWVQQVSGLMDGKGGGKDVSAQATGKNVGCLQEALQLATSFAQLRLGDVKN
Protocol: To delve deeper into the impact of selected small molecules on the structural conformation of AlaRS^R329H proteins, a series of proteolysis experiments were conducted. The small molecules were incubated with AlaRS^R329H proteins at room temperature for three hours, followed by SDS-PAGE analysis to evaluate their effects on the distribution of the digestion fragments. […] The AlaRS^R329H proteins (in the presence and absence of Atazanavir sulfate, Tanshinone I, Hederacolchiside A1, and Hexylresorcinol) were incubated with trypsin at different concentrations for 3 h before the reactions were quenched, and the products were separated by SDS-PAGE.

[2] = target: T2, AlaRS^G102R (Homo sapiens, UniProt P49588, G102R); assay: Biolayer interferometry (BLI); type: binding; details: immobilized AlaRS^G102R, mean ± SD, triplicate
T2 construct: made in house; host or cells: E. coli BL21 (DE3), pET-21a
T2 sequence (P49588 1-968 G102R): T1 sequence (P49588 1-968 R329H) with G102R, H329R
Protocol: Furthermore, we examined the interaction of Tanshinone I with additional AlaRS CMT mutants capable of binding to Nrp1 and causing conformational changes by BLI and proteolysis assays on additional related mutants. […] To further quantify the binding of small molecules to mutant proteins, binding experiments with AlaRS^R329H proteins and small molecules were conducted using an Octet R8 system (ForteBio, Fremont, CA, USA). Purified His-tagged AlaRS^R329H proteins (500 μg/mL) were captured on Ni-NTA biosensors (ForteBio, Fremont, CA, USA), achieving a saturation response of 4–5 nm after 300 s. The biosensors were then transferred to Octet buffer (PBS with 0.01% Tween 20) for 180 s to remove loosely bound, nonspecific proteins and to establish a stable baseline. Following this, the sensors were immersed in diluted Tanshinone I (2.5–100 μM in assay buffer) for 120 s to record the association signal, and then transferred back into Octet buffer to monitor the dissociation signal for 120 s. Reference wells containing buffer instead of Tanshinone I were included to correct for baseline shifts. Additionally, a parallel set of Ni-NTA sensors in buffer served as negative reference controls to account for nonspecific binding of the compounds to the biosensor surface. The data were processed using a double reference subtraction protocol to eliminate nonspecific signals, background noise, and signal drifts caused by biosensor variability. All assays were performed in 96-well black plates with a total volume of 200 μL per well at 30 °C. Data analysis, including correction and curve fitting, was carried out using Octet® Analysis Studio 12.2.2.26. The experiment was repeated three times.

Question: How did the “Effect on distribution of digestion fragments / conformation” value [1] turn out when `Cc1coc2c1C(=O)C(=O)c1c-2ccc2c(C)cccc12` [Tanshinone I] was run?
Answer: markedly altered the digestion fragment pattern; also recorded: significant change in the distribution of the bands

Question: What about the Kd [2] of the same molecule?
Answer: 31.2 ± 11.9 µM
